Like-named read-outs stand apart in the source and are kept apart here.
Legend:
[1] = target: T1, recombinant human MAO-A (Homo sapiens, UniProt P21397); assay: biochemical; assay type: biochemical; details: for remaining activity at 10 µM: read-out: Residual Activity at 10 µM (%) MAO-A
T1 construct: purchased Sigma-Aldrich
T1 sequence (P21397 1-527): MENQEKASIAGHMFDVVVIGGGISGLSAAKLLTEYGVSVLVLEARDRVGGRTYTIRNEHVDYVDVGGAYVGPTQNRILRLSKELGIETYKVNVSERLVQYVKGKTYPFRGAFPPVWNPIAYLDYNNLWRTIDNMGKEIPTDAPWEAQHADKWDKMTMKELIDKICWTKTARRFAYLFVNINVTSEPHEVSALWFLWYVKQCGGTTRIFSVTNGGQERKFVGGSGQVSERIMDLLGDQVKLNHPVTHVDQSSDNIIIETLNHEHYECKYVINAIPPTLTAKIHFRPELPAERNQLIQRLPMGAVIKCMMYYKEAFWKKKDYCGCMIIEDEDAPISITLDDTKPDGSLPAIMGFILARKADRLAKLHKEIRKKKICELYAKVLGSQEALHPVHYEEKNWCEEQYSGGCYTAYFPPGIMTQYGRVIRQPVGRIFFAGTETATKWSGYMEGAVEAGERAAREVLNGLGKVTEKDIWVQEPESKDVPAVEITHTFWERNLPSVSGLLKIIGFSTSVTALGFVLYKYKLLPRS

[2] = target: T2, recombinant human MAO-B (Homo sapiens, UniProt P27338); assay: biochemical; assay type: biochemical; details: for remaining activity at 10 µM: read-out: Residual Activity at 10 µM (%) MAO-B
T2 construct: purchased Sigma-Aldrich
T2 sequence (P27338 1-520): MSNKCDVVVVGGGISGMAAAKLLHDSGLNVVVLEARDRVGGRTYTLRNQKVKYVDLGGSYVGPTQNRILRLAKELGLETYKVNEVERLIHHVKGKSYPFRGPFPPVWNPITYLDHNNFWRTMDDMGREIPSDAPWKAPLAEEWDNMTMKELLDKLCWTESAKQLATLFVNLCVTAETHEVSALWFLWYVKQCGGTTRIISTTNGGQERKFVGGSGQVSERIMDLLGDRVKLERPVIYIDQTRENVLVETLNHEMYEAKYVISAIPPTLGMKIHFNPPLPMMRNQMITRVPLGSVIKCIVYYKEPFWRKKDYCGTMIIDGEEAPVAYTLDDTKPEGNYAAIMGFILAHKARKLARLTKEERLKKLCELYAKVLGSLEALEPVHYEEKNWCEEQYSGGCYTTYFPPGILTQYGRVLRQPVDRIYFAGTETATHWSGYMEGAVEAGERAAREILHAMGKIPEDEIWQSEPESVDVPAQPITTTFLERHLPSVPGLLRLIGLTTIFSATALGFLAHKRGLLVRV

[3] = target: T3, AChE from Electrophorus electricus (Electrophorus electricus, UniProt O42275); assay: AChE inhibition assay (Ellman, ATCI); assay type: biochemical; details: for Residual Activity at 10 µM (%) AChE: inhibitor 10 µM, mean ± SE, triplicate; for remaining activity at 10 µM: read-out: Residual Activity at 10 µM (%) AChE
T3 construct: purchased Sigma-Aldrich

[4] = target: T4, BChE from equine serum (Equus caballus, UniProt P81908); assay: BChE inhibition assay (Ellman, BTCI) and kinetics; assay type: biochemical; details: for Residual Activity at 10 µM (%) BChE: inhibitor 10 µM, mean ± SE, triplicate; for remaining activity at 10 µM: read-out: Residual Activity at 10 µM (%) BChE
T4 construct: BChE from equine serum; purchased Sigma-Aldrich; host or cells: equine serum

[5] = system: BChE; details: cited from earlier work
[6] = target: T2, recombinant human MAO-B; assay: Reversibility of MAO-B inhibition by dialysis; assay type: biochemical
[7] = system: AChE; details: cited from earlier work
[8] = inhibitor 10 µM, mean ± SE, triplicate

T3 sequence (O42275 24-633): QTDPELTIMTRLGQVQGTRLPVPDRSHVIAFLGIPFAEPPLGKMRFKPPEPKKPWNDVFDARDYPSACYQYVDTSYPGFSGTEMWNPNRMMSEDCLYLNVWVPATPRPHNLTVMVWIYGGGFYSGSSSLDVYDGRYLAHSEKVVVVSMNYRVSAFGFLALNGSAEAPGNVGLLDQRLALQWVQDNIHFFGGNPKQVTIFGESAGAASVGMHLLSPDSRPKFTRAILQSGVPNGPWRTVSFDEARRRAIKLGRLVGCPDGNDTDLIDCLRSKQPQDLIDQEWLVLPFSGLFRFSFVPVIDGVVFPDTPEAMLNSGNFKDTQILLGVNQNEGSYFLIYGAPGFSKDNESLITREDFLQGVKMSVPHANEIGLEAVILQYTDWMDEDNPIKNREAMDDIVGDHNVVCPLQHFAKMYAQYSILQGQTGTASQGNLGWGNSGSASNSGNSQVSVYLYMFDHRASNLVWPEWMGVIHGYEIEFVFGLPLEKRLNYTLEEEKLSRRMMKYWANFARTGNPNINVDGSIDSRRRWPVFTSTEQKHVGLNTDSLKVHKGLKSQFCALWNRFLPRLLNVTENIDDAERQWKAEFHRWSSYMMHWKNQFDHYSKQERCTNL
T4 sequence (P81908 whole entry): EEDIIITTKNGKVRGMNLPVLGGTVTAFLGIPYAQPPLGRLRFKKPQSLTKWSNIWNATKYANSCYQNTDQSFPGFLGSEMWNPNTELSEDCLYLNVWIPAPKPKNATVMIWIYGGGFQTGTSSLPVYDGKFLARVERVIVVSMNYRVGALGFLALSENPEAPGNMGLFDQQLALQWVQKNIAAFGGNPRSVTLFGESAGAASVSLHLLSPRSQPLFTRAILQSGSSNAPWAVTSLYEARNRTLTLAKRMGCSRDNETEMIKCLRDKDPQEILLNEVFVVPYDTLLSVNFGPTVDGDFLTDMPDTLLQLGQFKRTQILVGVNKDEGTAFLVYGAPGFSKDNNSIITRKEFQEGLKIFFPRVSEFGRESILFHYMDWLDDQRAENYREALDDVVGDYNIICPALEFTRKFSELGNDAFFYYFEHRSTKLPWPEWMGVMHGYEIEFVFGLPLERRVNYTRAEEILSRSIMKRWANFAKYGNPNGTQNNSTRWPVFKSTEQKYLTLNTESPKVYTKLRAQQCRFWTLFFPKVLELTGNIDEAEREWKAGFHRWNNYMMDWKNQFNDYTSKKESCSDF

Compound: liquiritin apioside
- Residual Activity at 10 µM (%) MAO-A [1, 8]: 86.9 ± 2.41%
- Residual Activity at 10 µM (%) MAO-B [2, 8]: 94.8 ± 0.57%
- Residual Activity at 10 µM (%) AChE [3]: 63.5 ± 2.56%
- Residual Activity at 10 µM (%) BChE [4]: 97.6 ± 0.93%

Compound: cremaphenanthrene F
- IC50 [5]: 14.6 µM

Compound: CC(=O)O[C@@H]1CCC(C)(C)c2ccc3c(c21)C(=O)C(=O)C1=C3OC[C@@H]1C [(1R,15R)-1-acetoxycryptotanshinone]
- IC50 [5]: 2.4 µM

Compound: O=C1C[C@@H](c2ccc(O)cc2)Oc2cc(O)ccc21 [LG, Liquiritigenin]
- IC50 [1]: 0.27 ± 0.041 µM
- remaining activity at 10 µM [1]: 0.46 ± 1.6%
- mode of MAO-B inhibition ([2]; Lineweaver-Burk plots): reversible competitive inhibitor
- remaining activity at 10 µM [2]: 0%
- IC50 [3]: > 40 µM
- remaining activity at 10 µM [3]: 95.3 ± 3.59%
- IC50 [4]: > 40 µM
- remaining activity at 10 µM [4]: 82.5 ± 0.26%
- reversibility of MAO-B inhibition [6]: reversibly inhibited

Compound: CC(C)=CCc1c(O)ccc2ccc(=O)oc12 [osthenol]
- IC50 ([7]; from Angelica pubescens): 25.3 µM

Compound: tannic acid
- IC50 [7]: 0.087 µM

Compound: Cc1cc2c(cc(=O)c1O)[C@@]1(CO)CCCC(C)(C)[C@@H]1CC2 [isograndifoliol]
- IC50 [5]: 0.9 µM

Compound: sagachromanol I
- IC50 [5]: 10.8 µM

Compound: COc1cc2c(cc1O)C[C@H]1c3c(cc(O)c(OC)c3-2)CCN1C [boldine]
- IC50 [5]: 321 µM

Compound: CC1(C)[C@@H](O[C@H]2O[C@H](C(=O)O)[C@@H](O)[C@H](O)[C@H]2O[C@@H]2O[C@H](C(=O)O)[C@@H](O)[C@H](O)[C@H]2O)CC[C@]2(C)[C@H]3C(=O)C=C4[C@@H]5C[C@@](C)(C(=O)O)CC[C@]5(C)CC[C@@]4(C)[C@]3(C)CC[C@@H]12 [Glycyrrhizin, glycyrrhizin]
- IC50 [1]: > 40 µM
- remaining activity at 10 µM [1, 8]: 95.8 ± 3.3%
- IC50 [2]: > 40 µM
- remaining activity at 10 µM [2, 8]: 93.1 ± 4.32%
- remaining activity at 10 µM [3]: 97.7 ± 2.14%
- remaining activity at 10 µM [4]: 82.3 ± 7.95%

Compound: isoliquiritin apioside
- Residual Activity at 10 µM (%) MAO-A [1, 8]: 86.6 ± 3.27%
- Residual Activity at 10 µM (%) MAO-B [2, 8]: 80.3 ± 5.57%
- Residual Activity at 10 µM (%) AChE [3]: 93.5 ± 3.07%
- Residual Activity at 10 µM (%) BChE [4]: 95.6 ± 0.88%

Compound: COc1ccc([C@@H]2CC(=O)c3c(O)cc(O[C@@H]4O[C@H](CO[C@@H]5O[C@@H](C)[C@H](O)[C@@H](O)[C@H]5O)[C@@H](O)[C@H](O)[C@H]4O)cc3O2)cc1O [hesperidin]
- IC50 [7]: 0.00345 µM

Reference: paper PMC7504216 (Molecules, 2020)
